Series [1] relates to Mus musculus. The series is described as follows: Antidepressant activity in Reserpine-induced depressive C57BL/6J mouse model assessed as decrease in immobility time at 0.3 mg/kg,ip administration measured after 7 days by tail suspension test. It is filed as functional, organism-based. The following applies: time 7.0 day.
Series [2] deals with Mus musculus. Nature of the series: Antidepressant activity in Reserpine-induced depressive C57BL/6J mouse model assessed as decrease in immobility time at 0.3 mg/kg,ip administration measured after 30 mins by tail suspension test. Type of series: functional, organism-based.
The test system of series [3] is Mus musculus. The series is described as follows: Antidepressant activity in Reserpine-induced depressive C57BL/6J mouse model assessed as decrease in immobility time at 0.1 to 1 mg/kg,ip administration measured after 7 days by tail suspension test. Type of series: functional, organism-based. As to conditions: dose 0.1-1 mg/kg, time 7.0 day.
Series [4] concerns Mus musculus. The series is described as follows: Antidepressant activity in Reserpine-induced depressive C57BL/6J mouse model assessed as decrease in immobility time at 0.1 to 0.3 mg/kg,ip administration measured after 30 mins by tail suspension test. Type of series: functional, organism-based. As to conditions: dose 0.1-0.3 mg/kg.
The subject of series [5] is Mus musculus. The series is described as follows: Antidepressant activity in Reserpine-induced depressive C57BL/6J mouse model assessed as decrease in immobility time at 0.3 mg/kg,ip administration measured for 1 to 3 days by tail suspension test. It is filed as functional, organism-based. The following applies: time 1-3 day.
In series [6] the test system is Mus musculus. Nature of the series: Antidepressant activity in chronic restraint stress-induced depressive C57BL/6J mouse model assessed as increase in hippocampal BDNF mRNA expression at 0.3 mg/kg,ip administration measured after 8 hrs by qRT-PCR analysis. Type of series: functional, organism-based.
Series [7] has as its system Mus musculus. The series is described as follows: Antidepressant activity in Reserpine-induced depressive C57BL/6J mouse model assessed as decrease in immobility time at 0.3 mg/kg,ip administration measured after 5 days by tail suspension test. Type of series: functional, organism-based. The following applies: time 5.0 day.
A short description of series [8]: Toxicity in chronic restraint stress-induced depressive C57BL/6J mouse model assessed as decrease in percentage of spontaneous alternation at 1 mg/kg,ip administration by Y-maze test. As to conditions: in vivo. Type of series: organism-based.
Series [9] is described as follows: Toxicity in chronic restraint stress-induced depressive C57BL/6J mouse model assessed as decrease in percentage of spontaneous alternation at 2 mg/kg,ip administration by Y-maze test. It is filed as organism-based. The following applies: in vivo.

The source made the active and inactive calls. No cut-off for these calls is given here.

On to `CN1[C@@H]2C[C@@H](OC(=O)C(F)(CO)c3cccc(F)c3)C[C@H]1[C@@H]1O[C@@H]12` (some centres not stated), for which, in the series on Mus musculus [1], the result was inactive. In addition, the outcome in the series on Mus musculus [2] was Active.
With `CN1[C@@H]2C[C@@H](OC(=O)C(F)(CO)Cc3ccccc3)C[C@H]1[C@@H]1O[C@@H]12` (some centres not stated), in the series on Mus musculus [1], the outcome was inactive. In addition, in the series on Mus musculus [2], the outcome was Active.
Turning to `Cc1ccc(S(=O)(=O)OCC(F)(Cc2ccccc2)C(=O)O[C@@H]2C[C@@H]3[C@H]4O[C@H]4[C@H](C2)N3C)cc1` (some centres not stated), the result with Mus musculus [1] and with Mus musculus [2] was inactive.
For the molecule `CN1[C@@H]2C[C@@H](OC(=O)C(F)(CCl)Cc3ccccc3)C[C@H]1[C@@H]1O[C@@H]12` (some centres not stated), the outcome in the series on Mus musculus [1] and in the series with Mus musculus [2] was inactive.
For the molecule `CN1[C@@H]2C[C@@H](OC(=O)C(F)(CO)Cc3ccccc3F)C[C@H]1[C@@H]1O[C@@H]12` (some centres not stated), the outcome in the series with Mus musculus [1] was inactive.
`C=CCC(F)(CO)C(=O)O[C@@H]1C[C@@H]2[C@H]3O[C@H]3[C@H](C1)N2C` (some centres not stated): the outcome in the series on Mus musculus [1] and with Mus musculus [2] was inactive.
Regarding `CN1[C@@H]2CC[C@H]1C[C@@H](OC(=O)C(F)(CO)c1ccccc1)C2` (some centres not stated), the outcome in the series on Mus musculus [1] and in the series with Mus musculus [2] was inactive.
Regarding `CN1[C@@H]2C[C@@H](OC(=O)C(F)(CBr)Cc3ccccc3)C[C@H]1[C@@H]1O[C@@H]12` (some centres not stated), the result in the series on Mus musculus [1] and in the series on Mus musculus [2] was inactive.
For the molecule `CCCCC(F)(CO)C(=O)O[C@@H]1C[C@@H]2[C@H]3O[C@H]3[C@H](C1)N2C` (some centres not stated), the result in the series on Mus musculus [1] and in the series with Mus musculus [2] was inactive.
Consider `CN1[C@@H]2C[C@@H](OC(=O)C(F)(CO)Cc3ccccc3Br)C[C@H]1[C@@H]1O[C@@H]12` (some centres not stated), for which the outcome with Mus musculus [1] was inactive.
Regarding `CN1[C@@H]2C[C@@H](OC(=O)C(F)(CN=[N+]=[N-])Cc3ccccc3)C[C@H]1[C@@H]1O[C@@H]12` (some centres not stated), the outcome in the series with Mus musculus [1] and in the series with Mus musculus [2] was inactive.
Take `CN1[C@@H]2C[C@@H](OC(=O)C(F)(CCl)c3ccccc3)C[C@H]1[C@@H]1O[C@@H]12` (some centres not stated): the outcome in the series on Mus musculus [1] and in the series with Mus musculus [2] was inactive.
Take `CN1[C@@H]2C[C@@H](OC(=O)C(F)(CO)Cc3ccc(C(F)(F)F)cc3)C[C@H]1[C@@H]1O[C@@H]12` (some centres not stated): the outcome in the series with Mus musculus [1] was inactive.
Take `CCCCC(F)(CCl)C(=O)O[C@@H]1C[C@@H]2[C@H]3O[C@H]3[C@H](C1)N2C` (some centres not stated): the outcome in the series with Mus musculus [1] and with Mus musculus [2] was inactive.
For `CN1[C@@H]2C[C@@H](OC(=O)C(F)(CO)c3ccccc3)C[C@H]1[C@@H]1O[C@@H]12` (some centres not stated), the outcome with Mus musculus [1] and in the series on Mus musculus [2] was Active.
Take `CN1[C@@H]2C[C@@H](OC(=O)[C@](F)(CO)c3ccccc3)C[C@H]1[C@@H]1O[C@@H]12`: in the series with Mus musculus [3], the outcome was inactive. In the series on Mus musculus [4], the outcome was Active.
Turning to `CN1[C@@H]2C[C@@H](OC(=O)[C@H](CO)c3ccccc3)C[C@H]1[C@@H]1O[C@@H]12` [SCOPOLAMINE], the result with Mus musculus [5], in the series on Mus musculus [6] and in the series with Mus musculus [2] was Active. The outcome in the series on Mus musculus [7] and in the series on Mus musculus [1] was inactive. The Activity entry in series [8] and in series [9] was “Toxic” in each case.
Take `CN1[C@@H]2C[C@@H](OC(=O)C(F)(CO)c3ccc(F)cc3)C[C@H]1[C@@H]1O[C@@H]12` (some centres not stated): in the series with Mus musculus [1], the result was inactive.
On to `CN1[C@@H]2C[C@@H](OC(=O)C(F)(CO)CCCc3ccccc3)C[C@H]1[C@@H]1O[C@@H]12` (some centres not stated), for which the result in the series on Mus musculus [1] and with Mus musculus [2] was inactive.
Take `CN1[C@@H]2C[C@@H](OC(=O)C(F)(CI)c3ccccc3)C[C@H]1[C@@H]1O[C@@H]12` (some centres not stated): the outcome in the series on Mus musculus [1] and in the series with Mus musculus [2] was inactive.
As to `C=CCC(F)(CCl)C(=O)O[C@@H]1C[C@@H]2[C@H]3O[C@H]3[C@H](C1)N2C` (some centres not stated), the result with Mus musculus [1] and in the series with Mus musculus [2] was inactive.
For `CN1[C@@H]2C[C@@H](OC(=O)C(F)(CO)Cc3cccc4ccccc34)C[C@H]1[C@@H]1O[C@@H]12` (some centres not stated), the outcome in the series with Mus musculus [1] was inactive.
For the molecule `CN1[C@@H]2C[C@@H](OC(=O)C(F)(CBr)c3ccccc3)C[C@H]1[C@@H]1O[C@@H]12` (some centres not stated), the result in the series with Mus musculus [1] and in the series on Mus musculus [2] was inactive.
Regarding `Cc1ccc(S(=O)(=O)OCC(F)(C(=O)O[C@@H]2C[C@@H]3[C@H]4O[C@H]4[C@H](C2)N3C)c2ccccc2)cc1` (some centres not stated), the outcome in the series with Mus musculus [1] and with Mus musculus [2] was inactive.
In the case of `CN1[C@@H]2C[C@@H](OC(=O)C(F)c3ccccc3)C[C@H]1[C@@H]1O[C@@H]12` (some centres not stated), the outcome with Mus musculus [1] and in the series with Mus musculus [2] was inactive.
With `CN1[C@@H]2C[C@@H](OC(=O)C(F)(CO)CCc3ccccc3)C[C@H]1[C@@H]1O[C@@H]12` (some centres not stated), the result in the series on Mus musculus [1] and in the series with Mus musculus [2] was inactive.

The values are drawn from ChEMBL document CHEMBL5543096 (J Med Chem, 2024).
